Source: paper PMC9120017, “Inhibition mechanism of the chloride channel TMEM16A by the pore blocker 1PBC” (Nature Communications, 2022)
Like-named read-outs stand apart in the source and are kept apart here.

Target: T1, mouse TMEM16A mutant K603Q (Mus musculus, UniProt Q8BHY3, K603Q)
T1 construct: expressed in transfected cells; host or cells: HEK293T
T1 sequence (Q8BHY3 1-960 K603Q): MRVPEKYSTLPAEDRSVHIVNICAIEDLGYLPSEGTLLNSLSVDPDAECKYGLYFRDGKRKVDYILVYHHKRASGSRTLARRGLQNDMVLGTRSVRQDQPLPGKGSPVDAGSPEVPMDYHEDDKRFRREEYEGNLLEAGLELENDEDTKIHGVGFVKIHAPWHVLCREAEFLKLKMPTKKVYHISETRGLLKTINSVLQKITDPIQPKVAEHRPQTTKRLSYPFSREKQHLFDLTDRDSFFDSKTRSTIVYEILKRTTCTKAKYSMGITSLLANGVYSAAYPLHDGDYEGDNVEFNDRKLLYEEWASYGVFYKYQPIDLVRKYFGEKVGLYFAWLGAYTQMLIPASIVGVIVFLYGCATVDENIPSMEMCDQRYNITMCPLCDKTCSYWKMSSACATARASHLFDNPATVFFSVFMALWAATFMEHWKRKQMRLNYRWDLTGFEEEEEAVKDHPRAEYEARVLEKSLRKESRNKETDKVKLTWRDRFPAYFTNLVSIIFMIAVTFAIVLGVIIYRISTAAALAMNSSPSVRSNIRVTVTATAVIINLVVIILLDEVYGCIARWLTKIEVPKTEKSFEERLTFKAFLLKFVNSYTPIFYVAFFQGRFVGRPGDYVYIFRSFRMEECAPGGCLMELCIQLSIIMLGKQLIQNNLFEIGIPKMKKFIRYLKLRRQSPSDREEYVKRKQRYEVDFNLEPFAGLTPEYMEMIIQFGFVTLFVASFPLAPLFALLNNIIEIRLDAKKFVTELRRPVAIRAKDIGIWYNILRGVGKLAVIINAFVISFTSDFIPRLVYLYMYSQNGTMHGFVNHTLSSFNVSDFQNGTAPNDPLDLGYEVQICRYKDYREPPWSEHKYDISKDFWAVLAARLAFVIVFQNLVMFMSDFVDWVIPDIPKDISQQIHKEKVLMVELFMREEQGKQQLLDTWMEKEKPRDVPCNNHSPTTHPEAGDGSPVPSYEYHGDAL
Experiment: Inside-out patch recording of 1PBC block, mutant K603Q
Type: cell-based
Description: HEK293T cells (ATCC CRL-1573) were maintained in Dulbecco’s modified Eagle’s medium (DMEM; Sigma-Aldrich) supplemented with 10 U ml^−1 penicillin, 0.1 mg ml^−1 streptomycin (Sigma-Aldrich), 2 mM L-glutamine (Sigma-Aldrich), and 10% FBS (Sigma-Aldrich) in a humidified atmosphere containing 5% CO2 at 37 °C. HEK293S GnTI^− cells (ATCC CRL-3022) were maintained in HyClone HyCell TransFx-H medium (GE Healthcare) supplemented with 10 U ml^−1 penicillin, 0.1 mg ml^−1 streptomycin, 4 mM L-glutamine, 0.15% poloxamer 188 (Sigma-Aldrich), and 1% FBS in an atmosphere containing 5% CO2 at 185 rpm at 37 °C. The ac splice variant of mouse TMEM16A (UniProt ID: Q8BHY3), mouse TMEM16B (UniProt ID: Q8CFW1), or mouse TMEM16F (UniProt ID: Q6P9J9) bearing a 3C cleavage site, a Venus YFP, a Myc tag, and a Streptavidin-binding peptide (SBP) downstream of the open reading frame in a modified pcDNA3.1 vector (Invitrogen) were used as described previously[21],[31]. Mutations were introduced using a modified QuikChange method[58] and were verified by sequencing.
HEK293T cells were transfected with 3–4 μg DNA per 6 cm Petri dish using the calcium phosphate co-precipitation method and were used within 24–96 h after transfection. Recordings were performed on inside-out patches excised from HEK293T cells expressing the construct of interest. Patch pipettes were pulled from borosilicate glass capillaries (O.D. 1.5 mm, I.D. 0.86 mm, Sutter Instrument) and were fire-polished with a microforge (Narishige) before use. Pipette resistance was typically 3–8 MΩ when filled with the recording solutions detailed below. Seal resistance was typically 4 GΩ or higher. Voltage-clamp recordings were made using Axopatch 200B, Digidata 1550, and Clampex 10.7 (Molecular Devices). Analog signals were filtered with the in-built 4-pole Bessel filter at 10 kHz and were digitized at 20 kHz. Solution exchange was achieved using a gravity-fed system through a theta glass pipette mounted on an ultra-fast piezo-driven stepper (Siskiyou). […] All recordings were performed at 20 °C.
A symmetrical ionic condition was used throughout. Stock solution with Ca^2+-EGTA contained 150 mM NaCl, 5.99 mM Ca(OH)2, 5 mM EGTA, and 10 mM HEPES at pH 7.40. Stock solution with EGTA contained 150 mM NaCl, 5 mM EGTA, and 10 mM HEPES at pH 7.40. Free Ca^2+ concentrations were adjusted by mixing the stock solutions at the required ratios calculated using the WEBMAXC program (http://web.stanford.edu/~cpatton/webmaxcS.htm). Patch pipettes were filled with the stock solution with Ca^2+-EGTA, which has a free Ca^2+ concentration of 1 mM. 1PBC (ChemBridge) stock was reconstituted in anhydrous DMSO (Sigma-Aldrich) at 100 mM and stored at −20 °C. Working solutions with 1PBC were prepared by serial dilution. Unless otherwise stated, experiments were performed at a saturating Ca^2+ concentration as shown in Supplementary Table 1 and the primary data were corrected for current rundown as described previously[21],[25].
Concentration-response relations, obtained from the ratio of the I-V plots before and after the application of the blocker, were fitted to the Hill equation,1 I/Imax=1/1+IC50/[blocker]^h where I/Imax is the normalized current responses, IC50 defines the concentration at which inhibition is at its half-maximum, and h is the Hill coefficient.

N#Cc1c(C(F)(F)F)cc(O)n2c1nc1ccccc12 [1PBC]
IC50 (0 mV, 4 µM Ca2+): 193 µM
remaining activity at 10 µM (0 mV, 1PBC conc 10, read-out: relative current in 1PBC (avr)): 94.4%
remaining activity at 30 µM (0 mV, 1PBC conc 30, read-out: relative current in 1PBC (avr)): 85.8%
remaining activity at 100 µM (0 mV, 1PBC conc 100, read-out: relative current in 1PBC (avr)): 66.3%
remaining activity at 10 µM (10 µM 1PBC, +80 mV, saturating Ca2+ (4 µM), read-out: I/Imax): 95.1%
remaining activity at 10 µM (10 µM 1PBC, -80 mV, saturating Ca2+ (4 µM), read-out: I/Imax): 92.8%
remaining activity at 30 µM (30 µM 1PBC, +80 mV, saturating Ca2+ (4 µM), read-out: I/Imax): 87%
remaining activity at 30 µM (30 µM 1PBC, -80 mV, saturating Ca2+ (4 µM), read-out: I/Imax): 86.9%
remaining activity at 100 µM (100 µM 1PBC, +80 mV, saturating Ca2+ (4 µM), read-out: I/Imax): 65.4%
remaining activity at 100 µM (100 µM 1PBC, -80 mV, saturating Ca2+ (4 µM), read-out: I/Imax): 66.1%
IC50 (20 mV, 4 µM Ca2+): 206 µM
remaining activity at 10 µM (20 mV, 1PBC conc 10, read-out: relative current in 1PBC (avr)): 96.5%
remaining activity at 30 µM (20 mV, 1PBC conc 30, read-out: relative current in 1PBC (avr)): 87.2%
remaining activity at 100 µM (20 mV, 1PBC conc 100, read-out: relative current in 1PBC (avr)): 67.1%
IC50 (40 mV, 4 µM Ca2+): 190 µM
remaining activity at 10 µM (40 mV, 1PBC conc 10, read-out: relative current in 1PBC (avr)): 94.6%
remaining activity at 30 µM (40 mV, 1PBC conc 30, read-out: relative current in 1PBC (avr)): 87.4%
remaining activity at 100 µM (40 mV, 1PBC conc 100, read-out: relative current in 1PBC (avr)): 65%
IC50 (60 mV, 4 µM Ca2+): 196 µM
remaining activity at 10 µM (60 mV, 1PBC conc 10, read-out: relative current in 1PBC (avr)): 95%
remaining activity at 30 µM (60 mV, 1PBC conc 30, read-out: relative current in 1PBC (avr)): 86.3%
remaining activity at 100 µM (60 mV, 1PBC conc 100, read-out: relative current in 1PBC (avr)): 66.4%
log-fold IC50 (change of mutant vs WT) (80 mV): 1.991
IC50 (80 mV, 4 µM Ca2+): 192 µM
remaining activity at 10 µM (80 mV, 1PBC conc 10, read-out: relative current in 1PBC (avr)): 95.1%
remaining activity at 30 µM (80 mV, 1PBC conc 30, read-out: relative current in 1PBC (avr)): 87%
remaining activity at 100 µM (80 mV, 1PBC conc 100, read-out: relative current in 1PBC (avr)): 65.4%
IC50 (100 mV, 4 µM Ca2+): 197 µM
remaining activity at 10 µM (100 mV, 1PBC conc 10, read-out: relative current in 1PBC (avr)): 95.8%
remaining activity at 30 µM (100 mV, 1PBC conc 30, read-out: relative current in 1PBC (avr)): 87.5%
remaining activity at 100 µM (100 mV, 1PBC conc 100, read-out: relative current in 1PBC (avr)): 65.8%
IC50 (120 mV, 4 µM Ca2+): 198 µM
remaining activity at 10 µM (120 mV, 1PBC conc 10, read-out: relative current in 1PBC (avr)): 97.2%
remaining activity at 30 µM (120 mV, 1PBC conc 30, read-out: relative current in 1PBC (avr)): 88.7%
remaining activity at 100 µM (120 mV, 1PBC conc 100, read-out: relative current in 1PBC (avr)): 65%
IC50 (140 mV, 4 µM Ca2+): 196 µM
remaining activity at 10 µM (140 mV, 1PBC conc 10, read-out: relative current in 1PBC (avr)): 97.5%
remaining activity at 30 µM (140 mV, 1PBC conc 30, read-out: relative current in 1PBC (avr)): 89.1%
remaining activity at 100 µM (140 mV, 1PBC conc 100, read-out: relative current in 1PBC (avr)): 64.5%
IC50 (-20 mV, 4 µM Ca2+): 180 µM
remaining activity at 10 µM (-20 mV, 1PBC conc 10, read-out: relative current in 1PBC (avr)): 92.4%
remaining activity at 30 µM (-20 mV, 1PBC conc 30, read-out: relative current in 1PBC (avr)): 84.5%
remaining activity at 100 µM (-20 mV, 1PBC conc 100, read-out: relative current in 1PBC (avr)): 65.5%
IC50 (-40 mV, 4 µM Ca2+): 187 µM
remaining activity at 10 µM (-40 mV, 1PBC conc 10, read-out: relative current in 1PBC (avr)): 93.3%
remaining activity at 30 µM (-40 mV, 1PBC conc 30, read-out: relative current in 1PBC (avr)): 86.6%
remaining activity at 100 µM (-40 mV, 1PBC conc 100, read-out: relative current in 1PBC (avr)): 65.2%
IC50 (-60 mV, 4 µM Ca2+): 193 µM
remaining activity at 10 µM (-60 mV, 1PBC conc 10, read-out: relative current in 1PBC (avr)): 93.8%
remaining activity at 30 µM (-60 mV, 1PBC conc 30, read-out: relative current in 1PBC (avr)): 84.7%
remaining activity at 100 µM (-60 mV, 1PBC conc 100, read-out: relative current in 1PBC (avr)): 67.1%
IC50 (-80 mV, 4 µM Ca2+): 193 µM
remaining activity at 10 µM (-80 mV, 1PBC conc 10, read-out: relative current in 1PBC (avr)): 92.8%
remaining activity at 30 µM (-80 mV, 1PBC conc 30, read-out: relative current in 1PBC (avr)): 86.9%
remaining activity at 100 µM (-80 mV, 1PBC conc 100, read-out: relative current in 1PBC (avr)): 66.1%
IC50 (-100 mV, 4 µM Ca2+): 199 µM
remaining activity at 10 µM (-100 mV, 1PBC conc 10, read-out: relative current in 1PBC (avr)): 95.1%
remaining activity at 30 µM (-100 mV, 1PBC conc 30, read-out: relative current in 1PBC (avr)): 86.6%
remaining activity at 100 µM (-100 mV, 1PBC conc 100, read-out: relative current in 1PBC (avr)): 66.7%
IC50 (-120 mV, 4 µM Ca2+): 202 µM
remaining activity at 10 µM (-120 mV, 1PBC conc 10, read-out: relative current in 1PBC (avr)): 94.9%
remaining activity at 30 µM (-120 mV, 1PBC conc 30, read-out: relative current in 1PBC (avr)): 86.9%
remaining activity at 100 µM (-120 mV, 1PBC conc 100, read-out: relative current in 1PBC (avr)): 67%
IC50 (-140 mV, 4 µM Ca2+): 216 µM
remaining activity at 10 µM (-140 mV, 1PBC conc 10, read-out: relative current in 1PBC (avr)): 96.6%
remaining activity at 30 µM (-140 mV, 1PBC conc 30, read-out: relative current in 1PBC (avr)): 88.1%
remaining activity at 100 µM (-140 mV, 1PBC conc 100, read-out: relative current in 1PBC (avr)): 68%
IC50 (K603Q, V 0 mV): 193 µM
IC50 (K603Q, V 20 mV): 206 µM
IC50 (K603Q, V 40 mV): 190 µM
IC50 (K603Q, V 60 mV): 196 µM
IC50 (K603Q, V 80 mV): 192 µM
IC50 (K603Q, V 100 mV): 197 µM
IC50 (K603Q, V 120 mV): 198 µM
IC50 (K603Q, V 140 mV): 196 µM
IC50 (K603Q, V -20 mV): 180 µM
IC50 (K603Q, V -40 mV): 187 µM
IC50 (K603Q, V -60 mV): 193 µM
IC50 (K603Q, V -80 mV): 193 µM
IC50 (K603Q, V -100 mV): 199 µM
IC50 (K603Q, V -120 mV): 202 µM
IC50 (K603Q, V -140 mV): 216 µM
Lowering of the potency of block vs WT (Lys 603 to glutamine): about 100 fold
